ED50 and IC50 data for eleven compounds are collected here from US7816558B2, “Triarylcarboxylic acid derivative” (Astellas Pharma Inc., priority 2005, dated 2010).

The term ED50 denotes the dose at which the effect has come halfway, by size or by number of responders. A high value points to weaker potency.

Each structure is given as a SMILES string. pIC50: −log10 of the molar value.

One assay relates to serum uric acid level. As to the kind of experiment: Hypouricemic effect (rat oxonate-induced high uric acid model), test (A). The assay is classed as in vivo. To be noted: Wistar rats, potassium oxonate 250 mg/kg s.c., 2 hours after oral administration, normal group 100% inhibition, control group 0%. On the procedure:
(A) For evaluating the serum uric acid level depressing capability of the compounds of the present invention, the following test was carried out using an oxonate-induced high uric acid model.
A 0.5% methyl cellulose liquid (normal group, control group) or a test compound suspended in 0.5% methyl cellulose (compound-administered group) was orally administered to 5 or 6-week-age male Wistar rats. One hour before blood collection, saline (normal group), or 250 mg/kg of potassium oxonate suspended in saline (control group, compound-administered group) was subcutaneously administered to the rats. 2 hours or 18 hours after the compound or methyl cellulose liquid administration, the blood was collected from each rat. The serum was separated from the collected blood, and the serum uric acid level was measured according to a phosphorus tungstate method (Am. J. Clin. Pathol., 28, 152-, 1957).
This test confirmed the excellent hypouricemic effect of the compounds of the present invention. For example, ED50 of the compound of Example 136 was 0.2 mg/kg in 2 hours after oral administration (for this, the serum uric acid level of the normal group was defined as 100% inhibition and the serum uric acid level of the control group was as 0% inhibition).

Assay [1] deals with T1, xanthine oxidase (derived from butter milk, by Sigma) (Bos taurus, UniProt P80457).
T1 construct: xanthine oxidase (derived from butter milk, by Sigma); purchased Sigma; host or cells: butter milk (natural source)
As to the kind of experiment: Xanthine oxidase inhibiting activity. It is filed as biochemical. To be noted: pterin 5 μM as substrate, isoxanthopterin light emission, room temperature; read-out: IC50 (concentration of the test compound for 50% inhibition). On the procedure: A test compound was dissolved in DMSO (by Nacalai) to have a concentration of 10 mM, and then just before use, its concentration was adjusted to a desired one.
The xanthine oxidase inhibitory activity of the compound of the present invention was evaluated according to a partly modified method of a method described in a reference “Free Radic. Biol. Med. 6, 607-615, 1992”. Concretely, xanthine oxidase (derived from butter milk, by Sigma) was mixed with 50 mM phosphate buffer to be 0.03 units/ml, and applied to a 96-well plate in an amount of […]. The test compound diluted to have a final concentration was added to the plate in an amount of 2 μl/well, and processed at room temperature for 20 minutes. Pterin (by Sigma) was added to it to have a final concentration of 5 μM in an amount of 50 μl/well, and reacted at room temperature for 10 minutes. Under a condition of excitation at 345 nm and emission at […] (pterin is oxidized by xanthine oxidase to give isoxanthopterin, and under the condition it emits light), the sample was analyzed using a microplate reader sapphire (by Tacan).
The light emission by isoxanthopterin in the presence or absence of xanthine oxidase was defined as 0% inhibition and 100% inhibition, respectively, and the concentration (IC50) of the test compound for 50% inhibition was computed.

T1 sequence (P80457 whole entry): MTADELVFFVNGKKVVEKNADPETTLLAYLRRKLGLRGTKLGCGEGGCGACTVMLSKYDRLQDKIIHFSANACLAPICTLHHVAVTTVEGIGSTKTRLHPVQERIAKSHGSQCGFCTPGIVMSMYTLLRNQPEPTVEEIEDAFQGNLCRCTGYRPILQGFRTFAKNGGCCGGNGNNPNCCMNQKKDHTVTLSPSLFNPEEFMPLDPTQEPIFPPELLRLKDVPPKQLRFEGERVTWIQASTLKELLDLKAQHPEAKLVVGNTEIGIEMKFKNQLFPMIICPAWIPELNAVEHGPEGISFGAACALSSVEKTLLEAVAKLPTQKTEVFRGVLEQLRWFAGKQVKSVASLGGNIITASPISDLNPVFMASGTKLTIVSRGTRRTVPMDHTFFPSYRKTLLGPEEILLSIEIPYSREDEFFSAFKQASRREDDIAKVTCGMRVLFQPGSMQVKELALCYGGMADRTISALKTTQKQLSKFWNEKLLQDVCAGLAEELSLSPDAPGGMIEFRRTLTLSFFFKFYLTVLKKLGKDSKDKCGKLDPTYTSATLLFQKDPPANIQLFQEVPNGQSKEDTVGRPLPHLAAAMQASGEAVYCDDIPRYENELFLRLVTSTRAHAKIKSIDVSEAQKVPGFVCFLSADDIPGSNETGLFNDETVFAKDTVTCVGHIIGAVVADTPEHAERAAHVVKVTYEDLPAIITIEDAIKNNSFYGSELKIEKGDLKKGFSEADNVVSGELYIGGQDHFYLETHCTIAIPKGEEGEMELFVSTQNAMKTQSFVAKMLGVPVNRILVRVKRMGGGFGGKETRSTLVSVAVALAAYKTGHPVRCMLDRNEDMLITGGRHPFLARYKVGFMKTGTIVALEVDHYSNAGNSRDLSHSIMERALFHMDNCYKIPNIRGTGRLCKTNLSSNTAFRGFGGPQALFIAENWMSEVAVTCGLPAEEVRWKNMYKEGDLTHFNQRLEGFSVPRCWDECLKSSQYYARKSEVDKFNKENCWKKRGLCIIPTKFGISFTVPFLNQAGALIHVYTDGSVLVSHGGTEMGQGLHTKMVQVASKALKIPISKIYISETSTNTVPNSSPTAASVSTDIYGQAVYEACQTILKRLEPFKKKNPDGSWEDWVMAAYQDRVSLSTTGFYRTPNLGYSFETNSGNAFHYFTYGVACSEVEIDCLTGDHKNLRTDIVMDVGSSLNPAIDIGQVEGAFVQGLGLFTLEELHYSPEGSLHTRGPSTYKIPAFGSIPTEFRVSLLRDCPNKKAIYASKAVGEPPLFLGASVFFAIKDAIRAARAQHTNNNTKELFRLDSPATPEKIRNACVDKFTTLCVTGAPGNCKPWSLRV

As for `N#Cc1cc(-c2cc(C(=O)[O-])ccn2)ccc1-c1ccccc1.[Na+]` [Example 1, sodium 2-(2-cyanobiphenyl-4-yl)isonicotinate], in the assay with serum uric acid level, the 50% effective dose (ED50) was less than 1 mg/kg.
Compound `N#Cc1cc(-c2ccc(C(=O)O)s2)ccc1-c1ccccc1` [Example 68, 5-(2-cyanobiphenyl-4-yl)thiophene-2-carboxylic acid] displayed a 50% effective dose (ED50) with serum uric acid level of less than 1 mg/kg.
Take `CC(C)(C)c1ccc(-c2ccc(-c3ccc(C(=O)O)s3)cc2C#N)cc1` [Example 94]: in assay [1], the pIC50 was 9.30.
In turn, `Cc1nc(-c2ccc(-c3ccccc3)c(C#N)c2)sc1C(=O)O` [Example 123, 2-(2-cyanobiphenyl-4-yl)-4-methyl-1,3-thiazole-5-carboxylic acid] returned an ED50 with serum uric acid level of less than 1 mg/kg.
On the same count and under the same terms, in the case of `Cc1ccc(-c2ccc(-c3nc(C)c(C(=O)O)s3)cc2C#N)cc1` [Example 124, 2-(2-cyano-4′-methylbiphenyl-4-yl)-4-methyl-1,3-thiazole-5-carboxylic acid] it was less than 1 mg/kg; in that of `COc1ccc(-c2ccc(-c3nc(C)c(C(=O)O)s3)cc2C#N)cc1` [Example 127, 2-(2-cyano-4′-methoxybiphenyl-4-yl)-4-methyl-1,3-thiazole-5-carboxylic acid], less than 1 mg/kg.
Turning to `Cc1cccc(-c2ccc(-c3nc(C)c(C(=O)O)s3)cc2C#N)c1` [Example 129, 2-(2-cyano-3′-methylbiphenyl-4-yl)-4-methyl-1,3-thiazole-5-carboxylic acid], the pIC50 in assay [1] is 9.05.
In turn, `N#Cc1cc(-c2ncc(C(=O)O)s2)ccc1-c1ccccc1` [Example 136, 2-(2-cyanobiphenyl-4-yl)-1,3-thiazole-5-carboxylic acid] displayed an ED50 in the assay on serum uric acid level of 0.2 mg/kg.
As to `N#Cc1cc(-n2cc(C(=O)O)cn2)ccc1-c1ccccc1` [Example 137, 1-(2-cyanobiphenyl-4-yl)-1H-pyrazole-4-carboxylic acid], the median effective dose (ED50) with serum uric acid level is less than 1 mg/kg.
Take `COc1ccc(-c2ccc(-n3cc(C(=O)O)cn3)cc2C#N)cc1` [Example 140, 1-(2-cyano-4′-methoxybiphenyl-4-yl)-1H-pyrazole-4-carboxylic acid]: in the assay with serum uric acid level, the ED50 is less than 1 mg/kg. Moreover, in assay [1], the pIC50 was 8.85.
The compound `Cn1nc(-c2ccc(-c3ccccc3)c(C#N)c2)cc1C(=O)O` [Example 146, 3-(2-cyanobiphenyl-4-yl)-1-methyl-1H-pyrazole-5-carboxylic acid] returned a 50% effective dose (ED50) with serum uric acid level of less than 1 mg/kg.
